Laboratory results published in patent publication US20140099256A1, “RADIOACTIVE LUMINESCENT NANOPARTICLE COMPOSITIONS” (The Board of Regents of the University of Texas System, priority 2012, published 2014).

Tests used:
Format in all cases: in vivo, BALB/c mice
[1] = Biodistribution of Cu(II)-GSSG complex and GS-CuNPs after tail-vein injection; details: 24 h after tail-vein injection, background copper deducted
Procedure: (§1) FIGS. 2A to 2E show (A) Ex vivo fluorescent images of urine of control mice or mice injected with luminescent GS-CuNPs (λex=510 nm, λem=790 nm); (B) Copper contents (n=6) in the urine at different times post injection (p.i.); (C) Biodistribution of Cu(II)-GSSG complex and luminescent GS-CuNPs in BALB/c mice (n=6) 24 h after the tail-vein injection; (D) Liver-tourine ratios of Cu(II)-GSSG complex and GS-CuNPs at 24 h p.i; (E) Pharmacokinetics (n=3) of the renal clearable Cu(II)-GSSG complex and luminescent GS-CuNPs in 24 h p.i.
(§2) The detailed biodistribution studies of mice injected with GS-CuNPs and Cu(II)-GSSG complexes were consistent with their renal clearance profiles (FIG. 2C). In view of the background of copper, the average copper contents in the various organs/tissues and urine from three BALB/c mice have been deducted. […] However, compared to free Cu ions that often bind to caeruloplasmin and hephaestin and mainly accumulate in the liver, both GS-CuNPs and Cu(II)-GSSG complexes had much lower accumulation in RES, which was because GSH minimized the serum protein absorption and render them the efficient renal clearance. […] As a result, liver-to-urine ratio (−0.16) of CuNPs is more than 4 times lower than that of Cu(II)-GSSG complex (FIG. 2D).

[2] = Blood pharmacokinetics of Cu(II)-GSSG complex and GS-CuNPs; details: 24 h p.i.
Procedure: as §1, §2

[3] = Renal clearance kinetics (copper content in urine) of GS-CuNPs and Cu(II)-GSSG complex
Procedure: as §1
Although “being small” is generally seen as an efficient approach to boost the clearance of biomaterials from the body, the avidity between materials and serum proteins also plays an important role in the excretion. Seemingly a dilemma, it is hard to know which factors in the renal excretion of GS-CuNPs and Cu(II)-GSSG complex are reliably important. As such, the renal clearance kinetics and biodistribution of GS-CuNPs and Cu(II)-GSSG complex were evaluated in BALB/c mice (FIGS. 2A and 2B). For GS-CuNPs, 78.5±3.5% of injected copper was excreted from the body into the urine after 24 h p.i., and over 60% of copper was actually eliminated from the body in the first 2 h p.i (FIG. 2B).

copper found in the liver [1]: 29.6±8.1 % ID
copper found in the spleen [1]: ~0.1 % ID
distribution half-life t½α [2]: 0.228 ± 0.0167 h
terminal elimination half-life (t½β) [2]: 4.93 ± 0.94 h
additional increase in urine excretion of copper metal ([3]; after 2 h): −18%
copper found in the urine ([3]; at 2 h p.i.): 22 % ID
Substance: Cu(II)-GSSG complex
